The record followed here is patent US12539292B2, “BRM targeting compounds and associated methods of use” (Arvinas Operations, Inc., priority 2018, dated 2026).

The experiment addresses T1, BRM (Homo sapiens, UniProt P51531).
T1 construct: In-Cell Western Screen of BRM Degradation in SW1573 Cells; endogenous in cells; host or cells: SW1573
As to the kind of experiment: In-cell Western screen of BRM degradation in SW1573 cells (Dmax and DC50). The format is cell-based. An outline of the steps: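 BRM levels were read by LI-COR in-cell Western after two-channel (800/680 nm) immunostaining of fixed, Triton-permeabilised SW1573 cells.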

[1] abbreviates: BRM degradation, SW1573 cells, read-out: DC50.
The mark [2] stands for this setting: BRM degradation, SW1573 cells, when tested at the top concentration of between 0.3 and 10 μM, read-out: Dmax (%) (% degraded).
Where [3] appears, read: degradation of BRM, read-out: BRM DC50.
Where [4] appears, read: BRM degradation, SW1573 cells, tested at the top concentration of between 0.3 and 10 μM, read-out: Dmax (%) (% degraded).
[5] abbreviates: BRM degradation, SW1573 cells, read-out: Dmax (% degraded).

Read-outs that look alike come from different tables or passages of the source. Bounds are passed on as bounds.

T1 sequence (P51531 whole entry): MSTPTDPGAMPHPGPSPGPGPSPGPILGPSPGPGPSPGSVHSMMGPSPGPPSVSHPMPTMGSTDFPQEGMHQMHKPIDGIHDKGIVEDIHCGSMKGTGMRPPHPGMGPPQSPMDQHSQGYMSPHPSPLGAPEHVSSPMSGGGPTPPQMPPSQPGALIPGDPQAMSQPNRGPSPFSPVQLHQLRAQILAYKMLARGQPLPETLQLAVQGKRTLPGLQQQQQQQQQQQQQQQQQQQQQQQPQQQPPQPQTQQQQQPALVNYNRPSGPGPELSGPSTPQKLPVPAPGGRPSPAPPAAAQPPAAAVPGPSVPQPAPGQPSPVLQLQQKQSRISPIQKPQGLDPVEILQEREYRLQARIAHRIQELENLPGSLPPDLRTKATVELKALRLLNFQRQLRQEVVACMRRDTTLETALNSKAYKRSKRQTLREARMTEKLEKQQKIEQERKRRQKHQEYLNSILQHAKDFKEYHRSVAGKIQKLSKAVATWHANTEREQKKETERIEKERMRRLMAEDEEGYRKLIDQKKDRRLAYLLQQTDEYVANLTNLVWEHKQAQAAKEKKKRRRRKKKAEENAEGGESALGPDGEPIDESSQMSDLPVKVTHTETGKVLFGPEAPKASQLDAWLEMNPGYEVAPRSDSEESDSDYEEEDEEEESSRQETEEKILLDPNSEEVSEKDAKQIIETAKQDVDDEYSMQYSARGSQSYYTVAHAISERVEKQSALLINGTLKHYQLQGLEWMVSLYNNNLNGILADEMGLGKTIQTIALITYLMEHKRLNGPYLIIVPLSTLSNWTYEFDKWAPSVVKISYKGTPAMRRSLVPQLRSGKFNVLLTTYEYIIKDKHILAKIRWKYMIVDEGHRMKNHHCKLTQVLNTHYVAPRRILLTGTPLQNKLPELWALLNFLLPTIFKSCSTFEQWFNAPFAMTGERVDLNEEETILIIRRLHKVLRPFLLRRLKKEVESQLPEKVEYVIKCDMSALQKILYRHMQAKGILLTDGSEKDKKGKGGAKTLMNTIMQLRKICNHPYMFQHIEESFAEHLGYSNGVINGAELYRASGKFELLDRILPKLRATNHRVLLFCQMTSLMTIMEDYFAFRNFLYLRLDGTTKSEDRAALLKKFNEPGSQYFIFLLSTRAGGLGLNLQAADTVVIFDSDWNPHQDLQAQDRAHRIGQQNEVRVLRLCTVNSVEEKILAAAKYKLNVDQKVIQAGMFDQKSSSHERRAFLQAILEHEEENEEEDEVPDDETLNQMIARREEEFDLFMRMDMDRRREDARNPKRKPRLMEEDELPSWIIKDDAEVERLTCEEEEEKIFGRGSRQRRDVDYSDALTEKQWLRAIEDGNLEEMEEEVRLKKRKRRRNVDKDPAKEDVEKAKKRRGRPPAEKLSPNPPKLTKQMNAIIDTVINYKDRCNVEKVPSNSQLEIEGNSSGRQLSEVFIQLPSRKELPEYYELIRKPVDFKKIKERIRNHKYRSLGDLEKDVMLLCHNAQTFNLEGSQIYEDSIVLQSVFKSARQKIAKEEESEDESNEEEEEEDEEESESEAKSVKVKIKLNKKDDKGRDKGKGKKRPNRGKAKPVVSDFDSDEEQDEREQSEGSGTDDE

As for `Cc1ncsc1-c1ccc([C@H](C)NC(=O)[C@@H]2C[C@@H](O)CN2C(=O)[C@@H](c2cc(OCCC3CCN(C[C@H]4C[C@H](N5CCC(CN6CCOC7(CCN(c8cc(-c9ccccc9O)nnc8N)CC7)C6)CC5)C4)CC3)no2)C(C)C)cc1` [compound 598, (2S,4R)-1-((R)-2-(3-(2-(1-(((1r,3R)-3-(4-((9-(3-amino-6-(2-hydroxyphenyl)pyridazin-4-yl)-1-oxa-4,9-diazaspiro[5.5]undecan-4-yl)methyl)piperidin-1-yl)cyclobutyl)methyl)piperidin-4-yl)ethoxy)isoxazol-5-yl)-3-methylbutanoyl)-4-hydroxy-N-((S)-1-(4-(4-methylthiazol-5-yl)phenyl)ethyl)pyrrolidine-2-carboxamide], the Dmax (BRM degradation, SW1573 cells, Table 2D, read-out: **Dmax (%) (% degraded)) is greater than 75%. Besides, the 50% degradation concentration (DC50) (BRM degradation, SW1573 cells, Table 2D, read-out: *DC50) was less than 2.5 nM.
`Cc1ncsc1-c1ccc([C@H](C)NC(=O)[C@@H]2C[C@@H](O)CN2C(=O)[C@@H](NC(=O)COCCOCCOCCOCCOCCOCCOCCOc2cc(N3C4CCC3CN(c3cc(-c5ccccc5O)nnc3N)C4)ccn2)C(C)(C)C)cc1` [compound 35, (2S,4R)-1-[(2S)-2-[1-(4-[3-[3-amino-6-(2-hydroxyphenyl)pyridazin-4-yl]-3,8-diazabicyclo[3.2.1]octan-8-yl]pyridin-2-yl)-1,4,7,10,13,16,19,22-octaoxatetracosan-24-amido]-3,3-dimethylbutanoyl]-4-hydroxy-N-[(1S)-1-[4-(4-methyl-1,3-thiazol-5-yl)phenyl]ethyl]pyrrolidine-2-carboxamide]: the DC50 under setting [1] fell in the range of 2.5 to 10 nM. For the same compound, the maximal degradation (Dmax) under setting [2] was greater than 75%.
Regarding `Cc1ncsc1-c1ccc([C@H](C)NC(=O)[C@@H]2C[C@@H](O)CN2C(=O)[C@H](c2cc(N3CCN(CCN4CCC(O[C@H]5C[C@H](Oc6cc(N7C8CCC7CN(c7cc(-c9ccccc9O)nnc7N)C8)ccn6)C5)CC4)CC3)no2)C(C)C)cn1` [compound 401, (2S,4R)-1-((2S)-2-(3-(4-(2-(4-((1r,3r)-3-((4-(3-(3-amino-6-(2-hydroxyphenyl)pyridazin-4-yl)-3,8-diazabicyclo[3.2.1]octan-8-yl)pyridin-2-yl)oxy)cyclobutoxy)piperidin-1-yl)ethyl)piperazin-1-yl)isoxazol-5-yl)-3-methylbutanoyl)-4-hydroxy-N-((S)-1-(6-(4-methylthiazol-5-yl)pyridin-3-yl)ethyl)pyrrolidine-2-carboxamide], the 50% degradation concentration (DC50) under setting [3] was greater than 30 nM.
As to `Cc1ncoc1-c1ccc([C@H](C)NC(=O)[C@@H]2C[C@@H](O)CN2C(=O)[C@@H](c2cc(OCCN3CCC(O[C@H]4C[C@H](Oc5cc(N6C7CCC6CN(c6cc(-c8ccccc8O)nnc6N)C7)ccn5)C4)CC3)no2)C(C)C)cn1` [compound 230, (2S,4R)-1-((2R)-2-(3-(2-(4-((1r,3R)-3-((4-(3-(3-amino-6-(2-hydroxyphenyl)pyridazin-4-yl)-3,8-diazabicyclo[3.2.1]octan-8-yl)pyridin-2-yl)oxy)cyclobutoxy)piperidin-1-yl)ethoxy)isoxazol-5-yl)-3-methylbutanoyl)-4-hydroxy-N-((S)-1-(6-(4-methyloxazol-5-yl)pyridin-3-yl)ethyl)pyrrolidine-2-carboxamide], under setting [1], the 50% degradation concentration (DC50) was less than 2.5 nM. The greatest degradation seen (Dmax) under setting [4] was greater than 75%.
For the compound `Cc1ncsc1-c1ccc([C@H](C)NC(=O)[C@@H]2C[C@@H](O)CN2C(=O)[C@H](c2cc(OCC#Cc3ncc(O[C@H]4C[C@H](Oc5cc(N6C7CCC6CN(c6cc(-c8ccccc8O)nnc6N)C7)ccn5)C4)cn3)no2)C(C)C)cc1` [compound 231, (2S,4R)-1-((2S)-2-(3-((3-(5-((1r,3S)-3-((4-(3-(3-amino-6-(2-hydroxyphenyl)pyridazin-4-yl)-3,8-diazabicyclo[3.2.1]octan-8-yl)pyridin-2-yl)oxy)cyclobutoxy)pyrimidin-2-yl)prop-2-yn-1-yl)oxy)isoxazol-5-yl)-3-methylbutanoyl)-4-hydroxy-N-((S)-1-(4-(4-methylthiazol-5-yl)phenyl)ethyl)pyrrolidine-2-carboxamide], the DC50 under setting [1] is less than 2.5 nM. In addition, the Dmax under setting [4] is greater than 75%.
As to `CC[C@H](NC(=O)[C@@H]1C[C@@H](O)CN1C(=O)C(c1cc(OCCN2CCC(O[C@H]3C[C@H](Oc4cc(N5C6CCC5CN(c5cc(-c7ccccc7O)nnc5N)C6)ccn4)C3)CC2)no1)C(C)C)c1ccc(-c2scnc2C)cc1` (stereo partly drawn) [compound 351, (2S,4R)-1-((2R)-2-(3-(2-(4-((1r,3R)-3-((4-(3-(3-amino-6-(2-hydroxyphenyl)pyridazin-4-yl)-3,8-diazabicyclo[3.2.1]octan-8-yl)pyridin-2-yl)oxy)cyclobutoxy)piperidin-1-yl)ethoxy)isoxazol-5-yl)-3-methylbutanoyl)-4-hydroxy-N-((S)-1-(4-(4-methylthiazol-5-yl)phenyl)propyl)pyrrolidine-2-carboxamide], the 50% degradation concentration (DC50) under setting [1] was less than 2.5 nM. Besides, the greatest degradation seen (Dmax) under setting [4] was greater than 75%.
For the compound `CC(C)C(C(=O)N1C[C@H](O)C[C@H]1C(=O)N[C@@H](C)c1ccc(-c2scnc2CN(C)C)cc1)c1cc(OCCN2CCN(CCOc3cc(N4C5CCC4CN(c4cc(-c6ccccc6O)nnc4N)C5)ccn3)CC2)no1` (stereo partly drawn) [compound 167, (2S,4R)-1-(2-(3-(2-(4-(2-((4-(3-(3-amino-6-(2-hydroxyphenyl)pyridazin-4-yl)-3,8-diazabicyclo[3.2.1]octan-8-yl)pyridin-2-yl)oxy)ethyl)piperazin-1-yl)ethoxy)isoxazol-5-yl)-3-methylbutanoyl)-N-((S)-1-(4-(4-((dimethylamino)methyl)thiazol-5-yl)phenyl)ethyl)-4-hydroxypyrrolidine-2-carboxamide], under setting [1], the 50% degradation concentration (DC50) was 10 to 30 nM. For the same compound, the maximal degradation (Dmax) under setting [4] is greater than 75%.
For `Cc1ncsc1-c1ccc([C@H](C)NC(=O)[C@@H]2C[C@@H](O)CN2C(=O)[C@@H](NC(=O)COCCCc2ccc(C(C)n3cc(-c4cc(-c5ccccc5O)nnc4N)cn3)cn2)C(C)(C)C)cc1` (stereo partly drawn) [compound 61, (2S,4R)-1-((2S)-2-(2-(3-(5-(1-(4-(3-amino-6-(2-hydroxyphenyl)pyridazin-4-yl)-1H-pyrazol-1-yl)ethyl)pyridin-2-yl)propoxy)acetamido)-3,3-dimethylbutanoyl)-4-hydroxy-N-((S)-1-(4-(4-methylthiazol-5-yl)phenyl)ethyl)pyrrolidine-2-carboxamide], the DC50 under setting [1] is 10 to 30 nM. Besides, the Dmax under setting [2] is greater than 75%.
For `Cc1ncsc1-c1ccc([C@H](C)NC(=O)[C@@H]2C[C@@H](O)CN2C(=O)[C@@H](c2cc(OCCN3CCC(CN4CC(Oc5cc(N6C7CCC6CN(c6cc(-c8ccccc8O)nnc6N)C7)ccn5)C4)CC3)no2)C(C)C)cc1` [compound 406, (2S,4R)-1-((2R)-2-(3-(2-(4-((3-((4-(3-(3-amino-6-(2-hydroxyphenyl)pyridazin-4-yl)-3,8-diazabicyclo[3.2.1]octan-8-yl)pyridin-2-yl)oxy)azetidin-1-yl)methyl)piperidin-1-yl)ethoxy)isoxazol-5-yl)-3-methylbutanoyl)-4-hydroxy-N-((S)-1-(4-(4-methylthiazol-5-yl)phenyl)ethyl)pyrrolidine-2-carboxamide], the DC50 under setting [3] was greater than 30 nM.
`Cc1ncsc1-c1ccc([C@H](C)NC(=O)[C@@H]2C[C@@H](O)CN2C(=O)[C@@H](c2cc(N3CCC(CN4CCC(O[C@H]5C[C@H](Oc6cc(N7C8CCC7CN(c7cc(-c9ccccc9O)nnc7N)C8)ccn6)C5)CC4)CC3)no2)C(C)C)c(N)c1` [compound 708, (2S,4R)-N-((S)-1-(2-amino-4-(4-methylthiazol-5-yl)phenyl)ethyl)-1-((2R)-2-(3-(4-((4-((1r,3r)-3-((4-(3-(3-amino-6-(2-hydroxyphenyl)pyridazin-4-yl)-3,8-diazabicyclo[3.2.1]octan-8-yl)pyridin-2-yl)oxy)cyclobutoxy)piperidin-1-yl)methyl)piperidin-1-yl)isoxazol-5-yl)-3-methylbutanoyl)-4-hydroxypyrrolidine-2-carboxamide]: the half-maximal degradation concentration (DC50) under setting [1] is less than 2.5 nM. Also, under setting [5], the Dmax is greater than 75%.
As to `Cc1ncsc1-c1ccc([C@H](C)NC(=O)[C@@H]2C[C@@H](O)CN2C(=O)[C@@H](c2cc(N3CCC(CN4CCN(C[C@H]5C[C@H](Oc6cc(N7C8CCC7CN(c7cc(-c9ccccc9O)nnc7N)C8)ccn6)C5)C(C)C4C)CC3)no2)C(C)C)cc1` (stereo partly drawn) [compound 705, (2S,4R)-1-((2R)-2-(3-(4-((4-(((1r,3r)-3-((4-(3-(3-amino-6-(2-hydroxyphenyl)pyridazin-4-yl)-3,8-diazabicyclo[3.2.1]octan-8-yl)pyridin-2-yl)oxy)cyclobutyl)methyl)-2,3-dimethylpiperazin-1-yl)methyl)piperidin-1-yl)isoxazol-5-yl)-3-methylbutanoyl)-4-hydroxy-N-((S)-1-(4-(4-methylthiazol-5-yl)phenyl)ethyl)pyrrolidine-2-carboxamide], the DC50 under setting [1] is less than 2.5 nM. Also, the Dmax under setting [5] is greater than 75%.
As to `Cc1ncsc1-c1ccc([C@H](C)NC(=O)[C@@H]2C[C@@H](O)CN2C(=O)[C@H](c2cc(OCCN3CCN(CCO[C@H]4C[C@H](Oc5cc(N6C7CCC6CN(c6cc(-c8ccccc8O)nnc6N)C7)ccn5)C4)CC3)no2)C(C)C)cc1` [compound 407, (2S,4R)-1-((2S)-2-(3-(2-(4-(2-((1r,3r)-3-((4-(3-(3-amino-6-(2-hydroxyphenyl)pyridazin-4-yl)-3,8-diazabicyclo[3.2.1]octan-8-yl)pyridin-2-yl)oxy)cyclobutoxy)ethyl)piperazin-1-yl)ethoxy)isoxazol-5-yl)-3-methylbutanoyl)-4-hydroxy-N-((S)-1-(4-(4-methylthiazol-5-yl)phenyl)ethyl)pyrrolidine-2-carboxamide], the DC50 under setting [3] was greater than 30 nM.
